Experimental data taken from publication PMC4457840, “Differential Inhibition of Signal Peptide Peptidase Family Members by Established γ-Secretase Inhibitors” (PLoS ONE, 2015).

Experiments:
SPPL2a = biological target: T1, SPPL2a (Homo sapiens, UniProt Q8TCT8); experiment: FBA/SPPL2a co-transfected HEK 293T cell cleavage assay (Aβ ELISA, Western blot); format: cell-based; conditions: overnight
T1 construct: expressed in transfected cells; host or cells: HEK 293T
T1 sequence (Q8TCT8 26-520): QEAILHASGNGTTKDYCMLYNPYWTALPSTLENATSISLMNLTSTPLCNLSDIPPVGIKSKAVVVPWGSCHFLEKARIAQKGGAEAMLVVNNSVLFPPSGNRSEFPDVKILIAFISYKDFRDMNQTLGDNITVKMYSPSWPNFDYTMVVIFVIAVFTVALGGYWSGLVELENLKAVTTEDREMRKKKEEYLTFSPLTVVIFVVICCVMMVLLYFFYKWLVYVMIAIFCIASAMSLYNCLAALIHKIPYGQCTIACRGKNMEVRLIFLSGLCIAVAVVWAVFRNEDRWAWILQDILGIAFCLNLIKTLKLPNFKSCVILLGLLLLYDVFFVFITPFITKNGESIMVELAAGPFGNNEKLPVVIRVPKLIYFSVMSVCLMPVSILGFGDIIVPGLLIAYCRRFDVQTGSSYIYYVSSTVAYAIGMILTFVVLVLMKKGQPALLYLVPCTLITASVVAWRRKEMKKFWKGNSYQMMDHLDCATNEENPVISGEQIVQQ

γ-secretase = test system: γ-secretase; set-up: method as in PMID 24352661, PMID 23791707; conditions: cited from earlier work

SMILES: CC(C)C[C@H](NC(=O)OCc1ccccc1)C(=O)N[C@@H](CC(C)C)C(=O)NCC(=O)CNC(=O)[C@H](CC(C)C)NC(=O)[C@H](CC(C)C)NC(=O)OCc1ccccc1 [(Z-LL)2 ketone]
- inhibition at 10 µM (SPPL2a): > 75%
- inhibition of γ-secretase cleavage of APP (γ-secretase): does not inhibit
